molecular target: USP7 (Homo sapiens (Human), UniProt Q93009); assay: USP7 Assay A (Ubitquin-Rhodamine110 Assay); type: biochemical; conditions: Ub-Rh110 substrate 25 nM
Method: Each assay was performed in a final volume of 15 μL in assay buffer containing 20 mM Tris-HCl (pH 8.0, (1M Tris-HCl, pH 8.0 solution; Corning 46-031-CM)), 1 mM GSH (L-Glutathione reduced: Sigma #G4251), 0.03% BGG ([…], Sigma, #G7516-25G), and 0.01% Triton X-100 (Sigma, #T9284-10L). Nanoliter quantities of either an 8-point or 10-point, 3-fold serial dilution in DMSO was pre-dispensed into assay plates (Perkin Elmer, ProxiPlate-384 F Plus, #6008269) for a final test concentration range of either 25 μM to 11 nM or 25 μM to 1.3 nM, respectively. The final concentration of the enzyme (USP7, construct USP7 (208-1102) 6*His, Viva Biotech) in the assay was […]. […] 5 μL of 2× enzyme was added to assay plates (pre-stamped with compound) preincubated with USP7 for 30 minutes and then 5 μL of 2×Ub-Rh110 was added to assay plates. Plates were incubated stacked for 20 minutes at room temperature before 5 μL of stop solution (final concentration of 10 mM citric acid in assay buffer (Sigma, #251275-500G)). Fluorescence was read on the Envision (Excitation at 485 nm and Emission at 535 nm; Perkin Elmer) or on the PheraSTAR (Excitation at 485 nm and Emission at 535 nm; BMG Labtech).
Data from USP7 Assays A and B were reported as percent inhibition (inh) compared with control wells based on the following equation: % inh=1−((FLU−AveLow)/(AveHigh−AveLow)) where FLU=measured Fluorescence (See Tables 2 and 3). AveLow=average Fluorescence of no enzyme control (n=16). AveHigh=average Fluorescence of DMSO control (n=16). IC50 values were determined by curve fitting of the standard 4 parameter logistic fitting algorithm included in the Activity Base software package: IDBS XE Designer Model205. Data is fitted using the Levenburg Marquardt algorithm. IC50 data from USP7 Assays A and B for the compounds of the invention can be found in Tables 2 and 3.

Chain of USP7 (Q93009 208-1102): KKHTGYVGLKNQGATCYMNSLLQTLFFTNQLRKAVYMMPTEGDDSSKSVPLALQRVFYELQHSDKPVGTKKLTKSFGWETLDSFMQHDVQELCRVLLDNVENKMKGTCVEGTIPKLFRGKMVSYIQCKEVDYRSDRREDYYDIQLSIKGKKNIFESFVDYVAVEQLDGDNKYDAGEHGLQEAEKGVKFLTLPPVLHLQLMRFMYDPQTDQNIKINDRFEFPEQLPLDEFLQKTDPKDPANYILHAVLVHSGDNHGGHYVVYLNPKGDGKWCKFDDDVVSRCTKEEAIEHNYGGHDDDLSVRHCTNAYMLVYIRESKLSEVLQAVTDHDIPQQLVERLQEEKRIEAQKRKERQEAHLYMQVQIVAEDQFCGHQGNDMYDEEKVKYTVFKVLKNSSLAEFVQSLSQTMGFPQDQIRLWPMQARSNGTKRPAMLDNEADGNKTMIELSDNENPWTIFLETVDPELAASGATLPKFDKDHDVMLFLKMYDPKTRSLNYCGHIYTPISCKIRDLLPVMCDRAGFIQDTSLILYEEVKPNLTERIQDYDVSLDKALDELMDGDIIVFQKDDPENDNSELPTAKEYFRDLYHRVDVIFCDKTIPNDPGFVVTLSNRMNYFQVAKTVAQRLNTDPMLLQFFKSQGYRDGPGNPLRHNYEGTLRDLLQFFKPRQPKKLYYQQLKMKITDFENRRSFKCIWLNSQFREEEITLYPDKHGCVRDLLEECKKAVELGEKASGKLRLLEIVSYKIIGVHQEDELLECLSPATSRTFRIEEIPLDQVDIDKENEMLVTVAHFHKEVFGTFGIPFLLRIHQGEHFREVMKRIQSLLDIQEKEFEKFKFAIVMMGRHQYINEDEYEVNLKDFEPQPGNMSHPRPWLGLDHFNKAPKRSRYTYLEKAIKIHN

Compound	IC50 [µM]
Cc1ccc(-c2ncc3c(=O)n(CC4(O)CCN(C(=O)CC(C)n5cccn5)CC4)cnn23)cc1 (racemic) [Compound I-119, 3-([4-Hydroxy-1-[3-(1H-pyrazol-1-yl)butanoyl]piperidin-4-yl]methyl)-7-(4-methylphenyl)-3H,4H-imidazo[4,3-f][1,2,4]triazin-4-one]	1 to 10
O=C(c1ccc(F)cc1)N1CCC(O)(Cn2cnn3c(-c4ccc(F)cc4)ncc3c2=O)CC1 [Compound I-116, 3-((1-(4-fluorobenzoyl)-4-hydroxypiperidin-4-yl)methyl)-7-(4-fluorophenyl)imidazo[5,1-f][1,2,4]triazin-4(3H)-one]	> 10
Cc1ccc(-c2ncc3c(=O)n(CC4(O)CCN(C(=O)c5ccc(F)cc5)CC4)cnn23)cc1 [Compound I-117, 3-((1-(4-fluorobenzoyl)-4-hydroxypiperidin-4-yl)methyl)-7-p-tolylimidazo[1,5-f][1,2,4]triazin-4(3H)-one]	1 to 10
Cc1ccc(-c2ncc3c(=O)n(CC4(O)CCN(C(=O)C[C@H](C)n5cccn5)CC4)cnn23)cc1 [Compound I-120, (S)-3-((1-(3-(1H-pyrazol-1-yl)butanoyl)-4-hydroxypiperidin-4-yl)methyl)-7-(p-tolyl)imidazo[5,1-f][1,2,4]triazin-4(3H)-one]	1 to 10
Cc1ccc(-c2ncc3c(=O)n(CC4(O)CCN(C(=O)C[C@@H](C)n5cccn5)CC4)cnn23)cc1 [Compound I-121, (R)-3-((1-(3-(1H-pyrazol-1-yl)butanoyl)-4-hydroxypiperidin-4-yl)methyl)-7-(p-tolyl)imidazo[5,1-f][1,2,4]triazin-4(3H)-one]	> 10
O=C(c1cnc(C2CC2)o1)N1CCC(O)(Cn2cnn3c(-c4ccc(F)cc4)ncc3c2=O)CC1 [Compound I-122, 3-((1-(2-cyclopropyloxazole-5-carbonyl)-4-hydroxypiperidin-4-yl)methyl)-7-(4-fluorophenyl)imidazo[5,1-f][1,2,4]triazin-4(3H)-one]	1 to 10
O=C(c1ccc(-n2cccn2)cc1)N1CCC(O)(Cn2cnn3c(-c4ccc(F)cc4)ncc3c2=O)CC1 [Compound I-123, 3-((1-(4-(1H-pyrazol-1-yl)benzoyl)-4-hydroxypiperidin-4-yl)methyl)-7-(4-fluorophenyl)imidazo[5,1-f][1,2,4]triazin-4(3H)-one]	1 to 10
Cc1ccc(C(=O)N2CCC(O)(Cn3cnn4c(-c5ccc(F)cc5)ncc4c3=O)CC2)cc1 [Compound I-124, 7-(4-fluorophenyl)-3-((4-hydroxy-1-(4-methylbenzoyl)piperidin-4-yl)methyl)imidazo[5,1-f][1,2,4]triazin-4(3H)-one]	> 10
Cc1ccc(C(=O)N2CCC(O)(Cn3cnn4c(-c5ccc(F)cc5)ncc4c3=O)CC2)cc1F [Compound I-125, 3-((1-(3-fluoro-4-methylbenzoyl)-4-hydroxypiperidin-4-yl)methyl)-7-(4-fluorophenyl)imidazo[5,1-f][1,2,4]triazin-4(3H)-one]	> 10

From patent US11795171B2, “Pyrrolotriazinones and imidazotriazinones as ubiquitin-specific protease 7 inhibitors” (Valo Health, Inc., priority 2014, dated 2023)
